Some test systems named below: Hs-578T; SF-295; SN12C; NCI-H23; ACHN; OVCAR-5; A549; MDA-MB-231; K562; DU-145; MDA-N; U-251; OVCAR-8; SK-MEL-28; NCI-H226; EKVX; RXF 393; SF-539.
Holding throughout (test): DTP human tumour cell line panel, 48 h

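These data come from cells grown in 96-well plates and exposed to compound for 48 hours at five concentrations. GI50 marks 50% less growth.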 Activity calls are given as the source filed them. Cut-off read from the data, not from the text of the source: active = GI50 up to about 1.1 µM and inactive = higher.

As a reminder, the GI50 is the concentration at which growth is held to half of that of the control. Regarding `COc1cc(C)c(S(=O)(=O)N(CCCN)OCCCN)c(C)c1C`, the GI50 with Hs-578T is 23 µM (inactive); in the experiment with SF-295, 31.3 µM (inactive); in the experiment on SN12C, 57 µM (inactive); in the experiment on NCI-H23, 31.1 µM (inactive); in the experiment on ACHN, 49.4 µM (inactive); in the experiment on OVCAR-5, 85.5 µM (inactive). In addition, the GI50 with A549 is 68.5 µM (inactive); with MDA-MB-231, 25.5 µM (inactive); in the experiment on K562 it was 15.6 µM (inactive); in the experiment on DU-145, 33.7 µM (inactive); in the experiment on MDA-N it was 36.9 µM (inactive); in the experiment on U-251 it was 29.9 µM (inactive). Further, the GI50 is 38.5 µM (inactive) with OVCAR-8; 38.9 µM (inactive) with SK-MEL-28; > 100 µM (inactive) in the experiment with NCI-H226; 31.8 µM (inactive) in the experiment with EKVX; 15.6 µM (inactive) in the experiment with RXF 393.

For `CN(Cc1cccc2ccsc12)/N=C\c1ccc(Cl)cc1`, the GI50 in the experiment with Hs-578T is > 100 µM (inactive); in the experiment on SF-295 it was 30.9 µM (inactive); with SN12C it was > 100 µM (inactive); with NCI-H23, 28.4 µM (inactive); in the experiment on ACHN it was > 100 µM (inactive); in the experiment on OVCAR-5, > 100 µM (inactive). Besides, the GI50 in the experiment on A549 was 30.4 µM (inactive); in the experiment with MDA-MB-231 it was > 100 µM (inactive); in the experiment on K562, 40.6 µM (inactive); in the experiment on DU-145, > 100 µM (inactive); with MDA-N it was 39.2 µM (inactive); with U-251, > 100 µM (inactive). Further, the GI50 in the experiment with OVCAR-8 is > 100 µM (inactive); in the experiment with SK-MEL-28 it was > 100 µM (inactive); with NCI-H226, 89.9 µM (inactive); in the experiment on EKVX it was 50.4 µM (inactive); with RXF 393, > 100 µM (inactive).

Take `S=C(/N=c1/sc(Nc2ccccc2)nc2sc3c(c12)CCCC3)Nc1ccccc1`: the GI50 with Hs-578T, in the experiment with SN12C, in the experiment on NCI-H23, with ACHN, in the experiment with OVCAR-5 and with MDA-MB-231 was > 62.5 µM (inactive) throughout. The GI50 with K562, with DU-145, in the experiment on MDA-N, in the experiment on U-251, in the experiment with SK-MEL-28 and in the experiment on NCI-H226 was > 62.5 µM (inactive) each time. Also, the GI50 in the experiment on EKVX and in the experiment with RXF 393 was > 62.5 µM (inactive) each time.

In the case of `CCCC(CCN)(CCN)[N+](=O)[O-]`, the GI50 with Hs-578T, with SF-295, with SN12C, with NCI-H23, in the experiment with ACHN and with OVCAR-5 was > 100 µM (inactive) throughout. Further, the GI50 in the experiment on A549, with MDA-MB-231, in the experiment on K562, with SF-539, in the experiment with DU-145 and in the experiment with MDA-N was > 100 µM (inactive) throughout. For the same molecule, the GI50 in the experiment with U-251, in the experiment with OVCAR-8, in the experiment with NCI-H226, in the experiment with EKVX and in the experiment on RXF 393 was > 100 µM (inactive) throughout.

Regarding `CCN(CCCl)c1cc(CN(C)C)cc(NC(=O)c2cc(C(=O)Nc3cc(CN(C)C)cc(N(CC)CCCl)c3)n(C)n2)c1`, the GI50 in the experiment on Hs-578T was 0.197 µM (active); in the experiment on SF-295, 0.78 µM (active); with SN12C it was 0.3 µM (active); in the experiment with NCI-H23, 0.284 µM (active); in the experiment with ACHN, 0.0828 µM (active); in the experiment with OVCAR-5, 2.32 µM (inactive). Also, the GI50 with A549 is 0.136 µM (active); in the experiment on MDA-MB-231, 1.53 µM (inactive); in the experiment with K562 it was 0.124 µM (active); in the experiment with SF-539, 0.338 µM (active); in the experiment on DU-145, 0.389 µM (active); in the experiment on MDA-N, 1.22 µM (inactive). Also, the GI50 in the experiment with U-251 was 0.0923 µM (active); in the experiment on OVCAR-8 it was 0.143 µM (active); with SK-MEL-28 it was 1.48 µM (inactive); with NCI-H226 it was 1.43 µM (inactive); with RXF 393 it was 0.449 µM (active).

In the case of `CN(C)C1C(O)=C(C(=O)NCN2CCCC2)C(=O)C2(O)C(O)=C3C(=O)c4c(O)cccc4C(C)(O)C3CC12` (configuration not stated), the GI50 in the experiment on Hs-578T is > 100 µM (inactive); in the experiment on SF-295 it was > 100 µM (inactive); in the experiment on SN12C, > 100 µM (inactive); in the experiment on NCI-H23, 63.5 µM (inactive); with ACHN, > 100 µM (inactive); with OVCAR-5, > 100 µM (inactive). Further, the GI50 in the experiment with A549 was 69.3 µM (inactive); in the experiment with MDA-MB-231 it was 29.2 µM (inactive); with K562, 57 µM (inactive); in the experiment on DU-145 it was 62.2 µM (inactive); in the experiment with MDA-N, > 100 µM (inactive); in the experiment on U-251 it was 88.9 µM (inactive). The GI50 with OVCAR-8, in the experiment with SK-MEL-28, in the experiment on NCI-H226, in the experiment with EKVX and in the experiment on RXF 393 was > 100 µM (inactive) in each case.

In the case of `COc1ccc(C(=O)/C=C/c2ccc(OCC(=O)O)cc2)cc1`, the GI50 was 70.1 µM (inactive) in the experiment with Hs-578T; > 100 µM (inactive) in the experiment on SF-295; 71.3 µM (inactive) in the experiment with SN12C; > 100 µM (inactive) in the experiment with NCI-H23; > 100 µM (inactive) in the experiment with ACHN; > 100 µM (inactive) in the experiment on OVCAR-5. Further, the GI50 was > 100 µM (inactive) in the experiment with A549; 59.2 µM (inactive) in the experiment with MDA-MB-231; 39.4 µM (inactive) with K562; 46.6 µM (inactive) with SF-539; > 100 µM (inactive) in the experiment with DU-145; 34.4 µM (inactive) with MDA-N. The GI50 was 27.7 µM (inactive) in the experiment on U-251; 74.3 µM (inactive) with OVCAR-8; 36.6 µM (inactive) with SK-MEL-28; > 100 µM (inactive) with EKVX; > 100 µM (inactive) with RXF 393.

As to `Cc1nc2ccc(NC3OC(CO)C(O)C(O)C3O)cc2c(=O)n1-c1ccccc1` (configuration not stated), the GI50 in the experiment on Hs-578T, with SF-295, in the experiment with SN12C, with NCI-H23, in the experiment with ACHN and with OVCAR-5 was > 100 µM (inactive) each time. The GI50 in the experiment on MDA-MB-231, in the experiment with K562, in the experiment with DU-145, in the experiment with MDA-N, with U-251 and in the experiment on OVCAR-8 was > 100 µM (inactive) in each case. Besides, the GI50 in the experiment with SK-MEL-28, in the experiment on NCI-H226, in the experiment on EKVX and with RXF 393 was > 100 µM (inactive) in each case.

The values are drawn from ChEMBL document CHEMBL1201862, “PubChem BioAssay data set” (2004).
